{"source": "patent US8535696B2", "about": "“Treating eczema and/or psoriasis” (Lypanosys Pte Limited, priority 2000, dated 2013)", "key": {"[1]": {"conditions": "laboratory experiments, www.gcinutrients.com; cited from earlier work"}, "[2]": {"assay": "Trials with patients using dosage forms of cetyl myristate alone or with cetyl palmitate", "type": "in vivo, human", "conditions": "variety of patients, cetyl myristate alone"}}}
{"smiles": "CCCCCCCCCCCCCCCCOC(=O)CCCCCCCCCCCCC", "note": "[cetyl myristate]", "values": [{"measurement": "anti-arthritic activity", "setting": "[1]", "value": "negligible"}, {"measurement": "relief from the symptoms of IBS and/or IBD", "setting": "[2]", "value": "favourable responses"}]}
